The values that follow are results of earlier work, collected in patent publication US20240316075A1, “METHODS FOR TREATMENT OF PAIN WITH CANNABINOIDS” (ANANDA SCIENTIFIC, INC, priority 2021, published 2024).

In one data set the target is CB2 receptors (Homo sapiens, UniProt P34972).
The conditions of data set [1]: doses ranging from 10 mg to 6000 mg, single and multiple doses.
For data set [2] the following is noted: rats, oral, 120 mg/kg dose.

CB2 receptors, sequence (P34972 whole entry): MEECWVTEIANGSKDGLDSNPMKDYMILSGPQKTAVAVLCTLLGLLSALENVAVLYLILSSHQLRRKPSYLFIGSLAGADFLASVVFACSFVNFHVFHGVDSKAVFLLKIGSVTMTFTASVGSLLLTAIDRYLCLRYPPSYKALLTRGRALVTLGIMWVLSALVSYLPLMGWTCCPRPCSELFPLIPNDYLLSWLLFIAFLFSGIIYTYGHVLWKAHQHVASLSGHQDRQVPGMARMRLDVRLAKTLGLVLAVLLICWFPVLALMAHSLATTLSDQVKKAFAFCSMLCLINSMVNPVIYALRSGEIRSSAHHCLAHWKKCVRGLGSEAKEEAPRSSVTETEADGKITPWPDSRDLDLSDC

Regarding `C=C(C)[C@@H]1CCC(C)=C[C@H]1c1c(O)cc(CCCCC)cc1O` [CBD, 2-(1R,6R)-3-methyl-6-prop-1-en-2-ylcyclohex-2-en-1-yl-5-pentylbenzene-1,3-diol], the “Affinity for CB2 receptors” value on CB2 receptors is given as “low affinity”. For the same compound, the Safety finding entry in data set [1] was “safe”. Moreover, the T½ in data set [2] was 4 to 5 h.
